Assay [1] concerns the target T1, apo-caspase-6 (Homo sapiens, UniProt P55212).
T1 construct: Residues 24-179 and 194-293 from caspase-6 cDNA (Origene) were cloned into pET-24b and pET-23b vectors; 6x histidine tag; made in house; host or cells: E. coli (as above), BirA co-expressed
T1 sequence (P55212 24-179): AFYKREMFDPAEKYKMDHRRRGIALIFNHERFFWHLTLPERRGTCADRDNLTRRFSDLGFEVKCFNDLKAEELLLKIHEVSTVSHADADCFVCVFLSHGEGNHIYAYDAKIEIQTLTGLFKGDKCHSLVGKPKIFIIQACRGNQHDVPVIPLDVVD
T1 sequence (P55212 194-293): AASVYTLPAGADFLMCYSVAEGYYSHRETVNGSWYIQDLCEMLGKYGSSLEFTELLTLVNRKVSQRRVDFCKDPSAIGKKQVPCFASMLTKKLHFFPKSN
The experiment in a line: SPR binding to apo-caspase-6. The settings on record: Rmax locked to control compound. The method, then: For SPR experiments, caspase-6 was cloned to include a C-terminal avi-tag (Avidity) and expressed and purified as above, except that biotin ligase (BirA) was co-expressed during fermentation. […] Avi-tagged zymogen C163A-caspase-6 was processed to mature C163A-caspase-6 by the addition of active caspase-3 and caspase-6. Chip preparation for neutravidin-based capture was performed as previously described using either a Biacore T100 or Biacore 3000 instrument (GE Healthcare). Running buffer was 50 mM HEPES pH 7.2, 100 mM MgSO4, 30 mM NaCl, 1 mM TCEP, 0.01% Triton X-100, 1% PEG-3350, 2.5% DMSO, and the instrument was set for 20 degrees C. After capture one flow cell of apo-caspase-6 was exposed to a continuous flow of 20 µM VEID-FMK. A rise in signal could be detected for the binding/reacting of the VEID-FMK and exposure was continued until no additional rise in response was observed (∼45 minutes) indicating full saturation of all binding sites. There was no observed decrease in signal upon washing, indicating the reaction was irreversible. […] Fluorescent substrates were too limiting in solubility and quantity to be added to the running buffer, so substrates were mixed at a concentration equal to their Kmapp with 3 and injected together over the indicated surfaces. […]
On the technique in general: In SPR one partner is held on a chip, and binding of the other changes the refractive index at the surface.

Assay [2] deals with T2, caspase-6 (Homo sapiens, UniProt P55212).
T2 construct: Residues 24-179 and 194-293 from caspase-6 cDNA (Origene) were cloned into pET-24b and pET-23b vectors; 6x histidine tag (C); made in house; host or cells: E. coli BL21 (DE3) pLysS
T2 sequence (P55212 24-179): T1 sequence (P55212 24-179)
T2 sequence (P55212 194-293): T1 sequence (P55212 194-293)
The experiment in a line: Caspase-6 enzymatic assay with fluorogenic tetrapeptide substrates. The format is biochemical. The protocol:
The in vitro enzymatic caspase assays utilize synthetic tetrapeptide substrates labeled with the fluorophores Rhodamine110 (R110) or 7-amino-4-methylcoumarin (AMC) at the P1 aspartic acid (Asp) residue. All assays were performed in 384-well plates in 12 µL reaction volume consisting of enzyme, substrate and indicated concentration of inhibitor or DMSO in assay buffer (50 mM HEPES [pH 7.0], 25 mM MgSO4, 0.5 mM EGTA, 5 mM Glutathione (GSH), 0.01% Triton X-100 containing 0.1% Bovine Gamma Globulin (BGG)). All inhibitors were serially diluted in 100% DMSO prior to dilution in assay buffer and transfer to assay plate. DMSO was diluted into assay buffer similarly for blank wells (no enzyme or compound) and final DMSO concentration was 1%. The concentration of caspase-6 used in enzymatic reactions typically varied between 1–10 nM depending on substrate used. Unless otherwise indicated, substrate concentration was within 3-fold of the determined Kmapparent (5 µM (Ac-VEID)2R110 [Kmapp = 8 µM]; 5 µM (Ac-DEVD)2R110 [Kmapp = 8 µM]; 25 µM (Ac-IETD)2R110 [Kmapp = 70 µM]; 25 µM (Ac-WEHD)2R110 [Kmapp = 70 µM]; 10µM Ac-VEID-AMC [Kmapp = 16µM]; 5 µM Ac-VEID-R110 [Kmapp = 8 µM]). The concentration of substrate utilized in selectivity assays for each caspase isoform was also held as close to Kmapparent as reasonably achievable (Table S1). Caspases-3 and -7 were expressed and purified at Genentech as the catalytic domain consisting of large p20 and small p10 subunits without prodomain. For all caspase enzymatic assays, the reaction plate was incubated at room temperature for 40 minutes and then read on Envision (Perkin Elmer) fluorescent plate reader at excitation/emission wavelengths of 485/535 nm (R110) or 350/450 nm (AMC). […]
The endpoint fluorescent emission (RFU) in each well was plotted as a function of inhibitor concentration and the 50% inhibition (IC50) values were determined using a nonlinear least squares fit of the data to a four parameter equation using Prism 5.0 software (GraphPad Software, San Diego, CA). […] Ki values for Compound 3 were calculated using this equation: Ki = IC50/(Km/[S] +1). Concentration-response curves for each inhibitor were normalized to zero and 100% based on no enzyme or DMSO control, respectively. For steady-state kinetic analysis, initial reaction velocity (RFU/minute) was plotted against substrate concentration at each inhibitor concentration and the data was fit to a hyperbolic Michaelis-Menten model using Prism 5.0 software. Km (µM) and Vmax (RFU/minute) were calculated by using this equation: v = Vmax • [S]/Km+[S] where v = initial reaction velocity at indicated substrate concentration (S). Vmax values were normalized to zero and 100% based on no enzyme or DMSO control, respectively.
Expression and purification of caspase-6 for enzymatic assays: Human caspase-6 was expressed as the mature enzyme using a split construct. Residues 24-179 and 194-293 from caspase-6 cDNA (Origene) were cloned into pET-24b and pET-23b vectors (Novagen) respectively; the small subunit contained a C-terminal 6x histidine tag. Vectors were cotransfected into the E.coli strain BL21 (DE3) pLysS (Stratagene). Cells were grown from a single colony in 6L of 2xYT supplemented with ampicillin and kanamycin at 37 °C to an OD of ~ 0.5 and were subsequently cooled to 16 °C before overnight induction with 0.2 mM IPTG. Cells were harvested by centrifugation, resuspended in 100 mM NaCl, 100 mM Tris, pH 8.0, and lysed.

The term Kd denotes a measure of binding affinity in units of concentration. The Ki is the dissociation constant of the complex between target and ligand, obtained from inhibition or displacement.

Read-outs that look alike come from different tables or passages of the source. A value given as a limit tells only on which side of the number the result lay.

Regarding `COc1ccc(-c2cc(C(=O)N[C@@H](CO)Cc3cccc(C#N)c3)co2)cc1OC` [Compound 3], in assay [1], the Kd came out at 192 µM. In assay [2] ((VEID)2R110 substrate, calculated from IC50), the Ki is 0.004 µM. Further, the “fold weaker with (DEVD)2R110 than with (VEID)2R110 substrate” value in assay [2] (caspase-6) is listed as ~44 fold. Moreover, the IC50 in assay [2] (caspase-6, (DEVD)2R110 substrate, read-out: IC50) was 0.481 µM; in assay [2] (caspase-6, (IETD)2R110 substrate, read-out: inhibition of (IETD)2R110 cleavage) it was ~100 µM; in assay [2] (caspase-6, (WEHD)2R110 substrate, not inhibited up to this concentration, read-out: inhibition of (WEHD)2R110 cleavage), > 100 µM; in assay [2] (caspase-6, monovalent VEID-AMC substrate, read-out: IC50) it was 14 µM; in assay [2] (caspase-6 cleavage of (VEID)2R110 substrate, read-out: IC50 (potency)), 0.011 µM. For the same compound, in assay [2] (caspase-6, (VEID)2R110), the “binding efficiency index (BEI; pIC50/molecular weight)” value came to 19.7. For the same compound, the “selectivity for caspase-6 cleavage of (VEID)2R110 compared to other caspase family members tested” value in assay [2] (versus caspases-3 and -7) is on record as “near absolute selectivity”.

Values taken from PMC3515450, “Mechanistic and Structural Understanding of Uncompetitive Inhibitors of Caspase-6” (PLoS ONE, 2012).
